For one test, the target named is Beta-lactamase (Staphylococcus aureus, UniProt P00807). The experiment in a line: Inhibition of class A beta-lactamase derived from Staphylococcus aureus strain PC1.
Test [1] has as its target T1, Beta-lactamase class C (Enterobacter cloacae, UniProt Q59401). The experiment in a line: Inhibition of class C beta-lactamase derived from Enterobacter cloacae P99.
The target in the next test is Beta-lactamase TEM (Enterobacter cloacae, UniProt Q6W9J1). The experiment in a line: Inhibition of class A TEM-1 beta-lactamase derived from Enterobacter cloacae.
Chain of Beta-lactamase TEM (Q6W9J1 whole entry): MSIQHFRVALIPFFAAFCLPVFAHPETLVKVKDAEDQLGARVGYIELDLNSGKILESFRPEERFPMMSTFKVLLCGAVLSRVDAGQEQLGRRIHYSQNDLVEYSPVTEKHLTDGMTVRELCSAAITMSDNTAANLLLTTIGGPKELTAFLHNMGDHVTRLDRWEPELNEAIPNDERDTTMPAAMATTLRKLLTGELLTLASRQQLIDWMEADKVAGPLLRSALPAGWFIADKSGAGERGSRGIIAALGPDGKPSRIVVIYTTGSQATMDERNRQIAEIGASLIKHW
For test [2], the target named is T1, Beta-lactamase class C. The experiment in a line: Inhibition of GC1 extended spectrum class C beta-lactamase. Set-up: species or system Enterobacter cloacae GC1.
Test [3] has as its target T1, Beta-lactamase class C. The experiment in a line: The compound was evaluated for inhibition against the GC1 extended spectrum Class C beta-lactamase.
The target in test [4] is T1, Beta-lactamase class C. The experiment in a line: The compound was evaluated for inhibition against Class C beta-lactamase derived from Enterobacter cloacae P99.

Usually IC50 stands for the concentration at which inhibition is half-maximal. A low value points to higher potency.

T1 sequence (Q59401 whole entry): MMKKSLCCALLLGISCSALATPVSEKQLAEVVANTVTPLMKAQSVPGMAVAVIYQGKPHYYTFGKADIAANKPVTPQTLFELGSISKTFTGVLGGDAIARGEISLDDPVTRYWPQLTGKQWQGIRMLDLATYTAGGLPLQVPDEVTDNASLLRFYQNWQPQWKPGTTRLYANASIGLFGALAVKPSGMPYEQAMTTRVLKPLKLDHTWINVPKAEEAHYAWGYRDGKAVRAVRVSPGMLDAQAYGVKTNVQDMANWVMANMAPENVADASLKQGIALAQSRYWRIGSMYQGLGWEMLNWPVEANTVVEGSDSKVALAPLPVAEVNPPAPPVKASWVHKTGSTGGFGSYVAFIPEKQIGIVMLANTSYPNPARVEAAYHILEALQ
Chain of Beta-lactamase (P00807 whole entry): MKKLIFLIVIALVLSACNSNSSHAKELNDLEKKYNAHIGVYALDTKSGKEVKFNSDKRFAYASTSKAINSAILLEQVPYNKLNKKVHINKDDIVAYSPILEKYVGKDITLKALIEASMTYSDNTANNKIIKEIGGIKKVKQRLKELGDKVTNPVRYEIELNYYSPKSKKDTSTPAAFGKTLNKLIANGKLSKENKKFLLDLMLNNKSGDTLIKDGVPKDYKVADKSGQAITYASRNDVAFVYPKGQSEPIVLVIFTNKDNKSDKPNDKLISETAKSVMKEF

Consider `C=C/C=C/C1=C(C(=O)O)N2C(=O)/C(=C/c3ccccn3)C2S(=O)(=O)C1` (stereo unspecified), for which the IC50 at Beta-lactamase stood at 75000 nM; against Beta-lactamase class C [1], 24000 nM; against Beta-lactamase TEM, 68000 nM.

For `COC(=O)/C(Cl)=C/C1=C(C(=O)O)N2C(=O)/C(=C/c3ccccn3)C2S(=O)(=O)C1` (stereo unspecified), the IC50 came out at 180 nM on Beta-lactamase class C [2], 1400 nM on Beta-lactamase, 900 nM against Beta-lactamase class C [1] and 70 nM against Beta-lactamase TEM.

For `C=CC(=O)OCC1=C(C(=O)O)N2C(=O)/C(=C/c3ccccn3)C2S(=O)(=O)C1` (stereo unspecified), the IC50 on Beta-lactamase class C [2] turned out to be 900 nM; on Beta-lactamase, 110000 nM; at Beta-lactamase class C [1], 100 nM.

Take `O=C(Cc1ccc(O)c(O)c1)OCC1=C(C(=O)O)N2C(=O)/C(=C/c3ccccn3)C2S(=O)(=O)C1` (stereo unspecified): the figures for the IC50 against Beta-lactamase, against Beta-lactamase class C [1] and against Beta-lactamase TEM were 67000 nM, 3600 nM and 17400 nM, respectively.

Take `C=C1C(/C=C/C(=O)O)=C(C(=O)O)N2C(=O)/C(=C/c3ccccn3)C2S1(=O)=O` (stereo unspecified): the figures for the IC50 against Beta-lactamase class C [1] and on Beta-lactamase TEM were 6600 nM and 2500 nM, respectively.

`COC(=O)/C=C/C1=C(C(=O)O)N2C(=O)/C(=C/c3ccccn3)C2S(=O)(=O)C1` (stereo unspecified): the IC50 was found to be 300 nM against Beta-lactamase class C [2], 300 nM against Beta-lactamase, 200 nM against Beta-lactamase class C [1] and 20 nM against Beta-lactamase TEM.

Turning to `N#CCC1=C(C(=O)O)N2C(=O)/C(=C/c3ccccn3)C2S(=O)(=O)C1` (stereo unspecified), the values for the IC50 against Beta-lactamase, against Beta-lactamase class C [1] and against Beta-lactamase TEM were 8900 nM, 900 nM and 5600 nM, respectively.

On to `CCOC(=O)CNC(=O)OCC1=C(C(=O)O)N2C(=O)/C(=C/c3ccccn3)C2S(=O)(=O)C1` (stereo unspecified), for which the IC50 against Beta-lactamase class C [2] is 45000 nM; on Beta-lactamase, 33400 nM; on Beta-lactamase class C [1] it was 400 nM; at Beta-lactamase TEM, 260000 nM.

Take `O=C(O)/C=C/C1=C(C(=O)O)N2C(=O)/C(=C/c3ccccn3)C2S(=O)(=O)C1` (stereo unspecified): the IC50 at Beta-lactamase worked out at 31000 nM; against Beta-lactamase class C [1], 310 nM; against Beta-lactamase TEM it was 2500 nM.

Turning to `CCC(=O)OCC1=C(C(=O)O)N2C(=O)/C(=C/c3ccccn3)C2S(=O)(=O)C1` (stereo unspecified), the IC50 against Beta-lactamase came to 15400 nM; against Beta-lactamase TEM it was 311000 nM.

Regarding `CC(C)(C)OC(=O)/C=C/C1=C(C(=O)O)N2C(=O)/C(=C/c3ccccn3)C2S(=O)(=O)C1` (stereo unspecified), the IC50 worked out at 240000 nM on Beta-lactamase and 1480 nM against Beta-lactamase class C [1].

On to `O=C(O)C1=C(/C=C/[N+](=O)[O-])CS(=O)(=O)C2/C(=C\c3ccccn3)C(=O)N12` (stereo unspecified), for which the IC50 at Beta-lactamase class C [2] was found to be 100 nM; at Beta-lactamase, 200 nM; at Beta-lactamase class C [1], 20 nM; on Beta-lactamase TEM, 70 nM.

`NC(=O)/C=C/C1=C(C(=O)O)N2C(=O)/C(=C/c3ccccn3)C2S(=O)(=O)C1` (stereo unspecified): the IC50 was 10 nM at Beta-lactamase class C [2], 100 nM on Beta-lactamase, 26 nM on Beta-lactamase class C [1] and 90 nM at Beta-lactamase TEM.

On to `NC(=O)/C=C/C1=C(C(=O)O)N2C(=O)/C(=C/c3cccs3)C2S(=O)(=O)C1` (stereo unspecified), for which the half-inhibitory concentration (IC50) was determined as 154000 nM against Beta-lactamase, 290 nM on Beta-lactamase class C [1] and 900 nM against Beta-lactamase TEM.

Turning to `COCC1=C(C(=O)O)N2C(=O)/C(=C/c3ccccn3)C2S(=O)(=O)C1` (stereo unspecified), the concentration for half-maximal inhibition (IC50) was 1200 nM on Beta-lactamase class C [2], 28000 nM on Beta-lactamase, 700 nM against Beta-lactamase class C [1] and 700 nM at Beta-lactamase TEM.

For the compound `C=C1C(/C=C/C(=O)OC)=C(C(=O)O)N2C(=O)/C(=C/c3ccccn3)C2S1(=O)=O` (stereo unspecified), the IC50 was 60 nM against Beta-lactamase class C [2], 6000 nM against Beta-lactamase, 30 nM at Beta-lactamase class C [1] and 2900 nM against Beta-lactamase TEM.

With `NC(=O)OCC1=C(C(=O)O)N2C(=O)/C(=C/c3ccccn3)C2S(=O)(=O)C1` (stereo unspecified), the IC50 stood at 260 nM against Beta-lactamase class C [2], 7900 nM against Beta-lactamase, 2300 nM against Beta-lactamase class C [1] and 10500 nM against Beta-lactamase TEM.

As to `C=C1C(/C=C/C(=O)OC(C)(C)C)=C(C(=O)O)N2C(=O)/C(=C/c3ccccn3)C2S1(=O)=O` (stereo unspecified), the IC50 amounted to 150000 nM at Beta-lactamase class C [2] and 440000 nM at Beta-lactamase class C [1].

Turning to `O=C(O)C1=C(/C=C/c2ccccn2)CS(=O)(=O)[C@@H]2/C(=C\c3ccccn3)C(=O)N12`, the figures for the IC50 on Beta-lactamase, against Beta-lactamase class C [1] and against Beta-lactamase TEM were 4300 nM, 180 nM and 200 nM, respectively.

Turning to `N#CC1=C(C(=O)O)N2C(=O)/C(=C/c3ccccn3)C2S(=O)(=O)C1` (stereo unspecified), the IC50 against Beta-lactamase was 280000 nM; against Beta-lactamase class C [1], 29 nM; against Beta-lactamase TEM it was 2340 nM.

Take `N#C/C=C/C1=C(C(=O)O)N2C(=O)/C(=C/c3ccccn3)C2S(=O)(=O)C1` (stereo unspecified): the half-inhibitory concentration (IC50) was found to be 720 nM against Beta-lactamase, 12 nM at Beta-lactamase class C [3], 10 nM on Beta-lactamase class C [4] and 14 nM on Beta-lactamase TEM.

For `O=C(COc1ccccc1)OCC1=C(C(=O)O)N2C(=O)/C(=C/c3ccccn3)C2S(=O)(=O)C1` (stereo unspecified), the IC50 against Beta-lactamase class C [2] came out at 130 nM; at Beta-lactamase it was 100000 nM; against Beta-lactamase class C [1], 100 nM; against Beta-lactamase TEM, 800 nM.

With `O=C(O)C1=C(/C=C/c2cccc[n+]2[O-])CS(=O)(=O)[C@@H]2/C(=C\c3ccccn3)C(=O)N12`, the IC50 was 100 nM at Beta-lactamase class C [2], 8600 nM at Beta-lactamase, 600 nM at Beta-lactamase class C [1] and 6 nM at Beta-lactamase TEM.

The values are drawn from ChEMBL document CHEMBL1133346, “The synthesis and evaluation of 3-substituted-7-(alkylidene)cephalosporin sulfones as beta-lactamase inhibitors” (Bioorg Med Chem Lett, 2000).
